Laboratory results taken from article PMC8757360 (ACS Omega, 2021).

Columns and labels:
HEK-293T-ACE2h cells = settings: human
human ACE2 = human ACE2 (Homo sapiens, UniProt Q9BYF1); assay: biochemical; format: binding
MCF-7 = assay: MTT cytotoxicity, MCF-7; settings: for IC50: Homo sapiens, MCF7, 72 h, read-out: IC50 MCF-7
A549 = assay: MTT cytotoxicity, A549; format: cell-based; settings: Homo sapiens, A549, 72 h, read-out: IC50 A549
SARS-CoV-2 spike RBD = SARS-CoV-2 spike RBD (Severe acute respiratory syndrome coronavirus 2, UniProt P0DTC2); assay: biochemical; format: binding
MDA-MB-231 = assay: MTT cytotoxicity, MDA-MB-231; format: cell-based; settings: Homo sapiens, MDA-MB-231, 72 h, read-out: IC50 MDA-MB-231
[1] = system: MCF-7, T47D, MDA-MB-231, and A549; assay: MTT cytotoxicity, range stated over four cancer cell lines; format: cell-based; settings: Homo sapiens, 72 h, read-out: IC50 values ranging over four cancer cell lines
T47D = assay: MTT cytotoxicity, T47D; settings: for IC50: Homo sapiens, T47D, 72 h, read-out: IC50 T47D; for cytotoxic effect, fold more potent than berberine: T47D cells, versus positive control berberine
[2] = system: SARS-CoV-2 spike pseudovirus; format: cell-based

human ACE2, sequence (Q9BYF1 18-805): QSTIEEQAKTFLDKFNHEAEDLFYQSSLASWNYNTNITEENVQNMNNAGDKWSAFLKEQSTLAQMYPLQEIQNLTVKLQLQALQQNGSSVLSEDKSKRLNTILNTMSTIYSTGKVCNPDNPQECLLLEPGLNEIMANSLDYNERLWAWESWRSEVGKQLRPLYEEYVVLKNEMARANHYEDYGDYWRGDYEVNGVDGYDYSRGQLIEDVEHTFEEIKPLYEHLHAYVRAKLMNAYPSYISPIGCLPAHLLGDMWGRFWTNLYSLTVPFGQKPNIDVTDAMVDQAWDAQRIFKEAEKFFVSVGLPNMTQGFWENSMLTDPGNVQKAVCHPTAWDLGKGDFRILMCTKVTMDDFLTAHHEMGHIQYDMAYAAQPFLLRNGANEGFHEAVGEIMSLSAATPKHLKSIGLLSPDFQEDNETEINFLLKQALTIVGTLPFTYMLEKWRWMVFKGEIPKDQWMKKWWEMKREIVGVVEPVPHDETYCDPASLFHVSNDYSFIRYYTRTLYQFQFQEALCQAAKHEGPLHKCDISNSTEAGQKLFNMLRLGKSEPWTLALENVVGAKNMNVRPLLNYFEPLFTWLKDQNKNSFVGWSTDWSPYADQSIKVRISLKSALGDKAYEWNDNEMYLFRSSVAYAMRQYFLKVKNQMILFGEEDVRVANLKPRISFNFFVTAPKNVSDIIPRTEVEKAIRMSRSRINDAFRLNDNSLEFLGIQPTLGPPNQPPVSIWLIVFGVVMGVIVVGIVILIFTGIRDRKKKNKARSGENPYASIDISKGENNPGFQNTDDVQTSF

Row | SMILES | CC0 (maximum nontoxic concentration) (HEK-293T-ACE2h cells) | TC50 (concentration that caused 50% cells' death) (HEK-293T-ACE2h cells) | Kd (human ACE2) | IC50 (MCF-7) | IC50 (A549) | Kd (SARS-CoV-2 spike RBD) | IC50 (MDA-MB-231) | IC50 [1] | IC50 (T47D) | cytotoxic effect, fold more potent than berberine (T47D) | SI (selectivity index, TC50/IC50) [2] | cytotoxic effect, fold more potent than berberine (MCF-7; MCF-7 cells, versus positive control berberine)
1 | c1ccc(-c2nc3ccccc3nc2-c2ccccc2)cc1 [4aa, 2,3-Diphenylquinoxaline] | >250 µM | >25 µM | 5890 ± 1670 µM | 16.7 ± 1.34 µM | 26.3 ± 1.96 µM | 1000 ± 761 µM | 28.6 ± 1.85 µM | 6.25 to 28.6 µM | 11.4 ± 1.17 µM | – | – | –
2 | Cc1ccc2nc(-c3ccccc3)c(-c3ccccc3)nc2c1 [4ab, 6-Methyl-2,3-diphenylquinoxaline] | 62.5 µM | 288.40 ± 17.65 µM | – | 10 ± 0.55 µM | 19.7 ± 1.28 µM | – | 18.2 ± 1.34 µM | 6.25 to 28.6 µM | 6.77 ± 0.57 µM | 3.94 fold | – | –
3 | COc1ccc2nc(-c3ccccc3)c(-c3ccccc3)nc2c1 [4ac, 6-Methoxy-2,3-diphenylquinoxaline] | 50 µM | 116.03 ± 4.28 µM | – | > 50 µM | > 50 µM | – | > 50 µM | – | > 50 µM | – | – | –
4 | Clc1ccc2nc(-c3ccccc3)c(-c3ccccc3)nc2c1 [4ad, 6-Chloro-2,3-diphenylquinoxaline] | >25 µM | >500 µM | 4.02 ± 2.03 µM | > 50 µM | > 50 µM | 8.16 ± 1.34 µM | > 50 µM | – | > 50 µM | – | >23.49 | –
5 | N#Cc1ccc2nc(-c3ccccc3)c(-c3ccccc3)nc2c1 [4ae, 2,3-Diphenylquinoxaline-6-carbonitrile] | 125 µM | 303.27 ± 9.51 µM | – | > 50 µM | > 50 µM | – | > 50 µM | – | > 50 µM | – | – | –
6 | COC(=O)c1ccc2nc(-c3ccccc3)c(-c3ccccc3)nc2c1 [4af, Methyl 2,3-diphenylquinoxaline-6-carboxylate] | 100 µM | >100 µM | – | > 50 µM | > 50 µM | – | > 50 µM | – | > 50 µM | – | – | –
7 | c1ccc(-c2nc3cc4ccccc4cc3nc2-c2ccccc2)cc1 [4ag, 2,3-Diphenylbenzo[g]quinoxaline] | 50 µM | 107.20 ± 1.64 µM | – | > 50 µM | 44.5 ± 3.55 µM | – | 45 ± 1.57 µM | – | 20.5 ± 1.64 µM | – | – | –
8 | Cc1ccc(-c2nc3ccccc3nc2-c2ccccc2)cc1 [4ba, 2-Phenyl-3-(p-tolyl)quinoxaline] | 125 µM | 271.67 ± 13.00 µM | – | 15.7 ± 1.18 µM | 24.1 ± 1.11 µM | – | 21.4 ± 1.19 µM | 6.25 to 28.6 µM | 9.76 ± 1.3 µM | – | – | –
9 | COc1ccc(-c2nc3ccccc3nc2-c2ccccc2)cc1 [4ca, 2-(4-Methoxyphenyl)-3-phenylquinoxaline] | 125 µM | 276.90 ± 13.45 µM | 3.67 ± 0.66 µM | > 50 µM | > 50 µM | 15.5 ± 1.14 µM | 48.8 ± 1.01 µM | – | > 50 µM | – | 14.05 | –
10 | c1ccc(-c2ccc(-c3nc4ccccc4nc3-c3ccccc3)cc2)cc1 [4ha, 2-([1,1′-Biphenyl]-4-yl)-3-phenylquinoxaline] | >250 µM | >500 µM | 238 ± 57.3 µM | > 50 µM | > 50 µM | 135 ± 17.7 µM | > 50 µM | – | > 50 µM | – | >3.50 | –
11 | Clc1ccc(-c2nc3ccccc3nc2-c2ccccc2)cc1 [4ia, 2-(4-Chlorophenyl)-3-phenylquinoxaline] | 25 µM | 115.20 ± 9.72 µM | – | 7.3 ± 1.1 µM | 18.6 ± 0.25 µM | – | 17.8 ± 0.69 µM | 6.25 to 28.6 µM | 6.25 ± 0.73 µM | 4.27 fold | – | 1.96 fold
12 | Brc1ccc(-c2nc3ccccc3nc2-c2ccccc2)cc1 [4ja, 2-(4-Bromophenyl)-3-phenylquinoxaline] | 25 µM | >100 µM | – | – | – | – | – | – | – | – | – | –
13 | Fc1ccc(-c2nc3ccccc3nc2-c2ccccc2)cc1 [4ka, 2-(4-Fluorophenyl)-3-phenylquinoxaline] | 25 µM | >100 µM | – | – | – | – | – | – | – | – | – | –
14 | c1ccc(-c2nc3ccccc3nc2-c2ccc3ccccc3c2)cc1 [4pa, 2-(Naphthalen-2-yl)-3-phenylquinoxaline] | >25 µM | >250 µM | – | > 50 µM | > 50 µM | – | > 50 µM | – | > 50 µM | – | – | –
15 | c1ccc(-c2nc3ccccc3nc2-c2ccsc2)cc1 [4ra, 2-Phenyl-3-(thiophen-3-yl)quinoxaline] | 62.5 µM | 337.06 ± 15.49 µM | – | > 50 µM | > 50 µM | – | > 50 µM | – | > 50 µM | – | – | –
16 | C=CCc1cc(-c2cc(CC=C)c3oc(=O)n(Cc4nnc(-c5ccc(OC)cc5)o4)c3c2)c2oc(=O)n(Cc3nnc(-c4ccc(OC)cc4)o3)c2c1 [6p, 5′,7-Diallyl-3,3′-bis((5-(4-methoxyphenyl)-1,3,4-oxadiazol-2-yl)methyl)-[5,7′-bibenzo[d]oxazole]-2,2′(3H,3′H)-dione, reference compound] | >100 µM | >100 µM | – | – | – | – | – | – | – | – | >8.40 | –
17 | COc1ccc2cc3[n+](cc2c1OC)CCc1cc2c(cc1-3)OCO2 [berberine, reference compound] | – | – | – | 14.3 ± 1.44 µM | 5.22 ± 0.44 µM | – | 18 ± 1.91 µM | – | 26.7 ± 2.45 µM | – | – | –
